Assay results: the supplement of paper PMC10307832

What was measured:
Experiment in all cases: relative viability (nuclei count vs DMSO), 5 days (fraction); higher = more cells survive
Nelarabine + Palbociclib = compound: COc1nc(N)nc2c1ncn2[C@@H]1O[C@H](CO)[C@@H](O)[C@@H]1O [Nelarabine] + CC(=O)c1c(C)c2cnc(Nc3ccc(N4CCNCC4)cn3)nc2n(C2CCCC2)c1=O [Palbociclib] (partner 0.5 µM)
Method in brief: (§1)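 Values are medians from duplicate plates. Each reflects relative viability, defined as the nuclei count of treated wells over that of vehicle wells. Lung cancer cell lines in 1536-well plates were pin-tool dosed one day after seeding with one drug alone or with a fixed anchor-drug dose plus five library-drug doses (not always all listed) in √10 steps, then fixed, stained and imaged at 4× after 5 days.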

Adavosertib + Bortezomib = compound: C=CCn1c(=O)c2cnc(Nc3ccc(N4CCN(C)CC4)cc3)nc2n1-c1cccc(C(C)(C)O)n1 [Adavosertib] + CC(C)C[C@H](NC(=O)[C@H](Cc1ccccc1)NC(=O)c1cnccn1)B(O)O [Bortezomib] (partner 0.002 µM)
Method in brief: as §1

Nelarabine + Dasatinib = compound: COc1nc(N)nc2c1ncn2[C@@H]1O[C@H](CO)[C@@H](O)[C@@H]1O [Nelarabine] + Cc1nc(Nc2ncc(C(=O)Nc3c(C)cccc3Cl)s2)cc(N2CCN(CCO)CC2)n1 [Dasatinib] (partner 0.075 µM)
Method in brief: as §1

Adavosertib + Linsitinib = compound: C=CCn1c(=O)c2cnc(Nc3ccc(N4CCN(C)CC4)cc3)nc2n1-c1cccc(C(C)(C)O)n1 [Adavosertib] + C[C@]1(O)C[C@@H](c2nc(-c3ccc4ccc(-c5ccccc5)nc4c3)c3c(N)nccn32)C1 [Linsitinib] (partner 1 µM)
Method in brief: as §1

Cell Line	relative viability (Nelarabine + Palbociclib; first compound 0.01 µM)	relative viability (Nelarabine + Palbociclib; first compound 0.03162 µM)	relative viability (Nelarabine + Palbociclib; first compound 0.1 µM)	relative viability (Nelarabine + Palbociclib; first compound 0.3162 µM)	relative viability (Nelarabine + Palbociclib; first compound 1 µM)	relative viability (Adavosertib + Bortezomib; first compound 0.01 µM)	relative viability (Adavosertib + Bortezomib; first compound 0.03162 µM)	relative viability (Adavosertib + Bortezomib; first compound 0.1 µM)	relative viability (Adavosertib + Bortezomib; first compound 0.3162 µM)	relative viability (Nelarabine + Dasatinib; first compound 0.01 µM)	relative viability (Nelarabine + Dasatinib; first compound 0.03162 µM)	relative viability (Nelarabine + Dasatinib; first compound 0.1 µM)	relative viability (Nelarabine + Dasatinib; first compound 0.3162 µM)	relative viability (Nelarabine + Dasatinib; first compound 1 µM)	relative viability (Adavosertib + Linsitinib; first compound 0.03162 µM)	relative viability (Adavosertib + Linsitinib; first compound 0.1 µM)	relative viability (Adavosertib + Linsitinib; first compound 0.3162 µM)	relative viability (Adavosertib + Linsitinib; first compound 0.01 µM)
NCI-H1650	0.255	0.317	0.337	0.32	0.266	0.223	0.211	0.207	0.194	0.265	0.329	0.27	0.305	0.329				
LCLC-97TM1			0.299	0.229	0.265	0.284	0.635	0.577	0.233	1.03	0.506	0.779	0.95	0.806	0.19	0.17	0.169	
UMC-11	0.361	0.269	0.318	0.332	0.351	0.737	0.481	0.927	0.708	0.698	0.463	0.575	0.541	0.608	0.99	1.19	1.02	0.959
NCI-H1975	0.656	0.526	0.747	0.726	0.649	0.356	0.353	0.399	0.324	0.431	0.343	0.316	0.434	0.462	0.951	0.891	0.522	1
NCI-H2405	0.495	0.48	0.516	0.529	0.51	0.984	1.01	1.01	1.07	0.208	0.244	0.233	0.21	0.229	0.966	1	0.995	0.959
NCI-H1734	0.387	0.305	0.334	0.368	0.326	1.01	1.01	1.02	0.696	0.559	0.411	0.418	0.527	0.532	0.953	0.916	0.938	0.992
NCI-H358	0.121	0.136	0.129	0.127	0.139					0.17	0.144	0.148	0.145	0.154	0.675	0.547	0.374	0.747
Calu-6						0.93	1.01	1.05	0.386						0.917	1.02	0.866	0.906
IA-LM						0.899	0.989	0.893	0.774						0.749	0.692	0.807	0.687
A549															0.553	0.634	0.52	0.654
NCI-H1648		0.27		0.292	0.215													
NCI-H1793	0.353		0.316	0.398	0.318					0.458	0.398	0.416	0.426	0.409	0.765	0.915	0.869	0.822
SW 900	0.567	0.604	0.504	0.6	0.593					0.555	0.439	0.524	0.623	0.639				
NCI-H596						1.27	1.01	1	1.14	0.752	0.571	0.488	0.581	0.666	1.01	1.01	1.11	1.04
NCI-H1623										0.525	0.563	0.51	0.559	0.517				
EBC-1						0.719	0.653	0.562	0.493						0.962	0.994	1.18	0.91
NCI-H2342	0.557	0.463	0.529	0.521	0.554					0.324	0.302	0.282	0.346	0.29				
NCI-H1563						0.9	0.901	0.86	0.869	0.458	0.437	0.427	0.42	0.406	1.24	1.18	1.2	1.17
ChaGo-K-1	0.939	0.815	0.964	0.989	0.876	0.872	0.838	0.897	0.699	0.624	0.515	0.533	0.707	0.568				
NCI-H1299						1.02	1.03	1.09	1.02						0.985	0.996	0.95	0.963
HCC-44	0.985	0.955	0.978	0.984	0.944	0.889	0.95	0.89	1.04						0.659	0.683	0.794	0.628
NCI-H1944	0.367	0.267	0.343	0.362	0.316					0.211	0.213	0.196	0.185	0.194	1.13	1.23	1	1.17
